# Measured values as given in patent US5340800A, “Peptide medicaments for the treatment of disease” (priority 1992, dated 1994).
# Values joined by “and” are separate entries in the source; they are usually repeats but may differ in a detail not shown here. Identical values can stand only once. Like-named read-outs stand apart in the source and are kept apart here. No end group written: not given here.
# Tested on: polymorphonuclear leukocyte adhesion to TNF activated endothelial cells
# Assay type: cell-based, human
# Conditions: for Average % Change of PMN Adhesion to TNF Activated ECs: average over PMN donors (# donors in parentheses)
# In short: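 Human leukocytes were isolated on Ficoll-Hypaque and labelled for 15 min with 111In-oxide or 51Cr. They were added to TNF-activated HUVEC monolayers (≤5th passage, fibronectin-coated, washed with RPMI/1% FCS) for 30 min at 37 °C, 5% CO2. Adherent radioactivity was counted in quadruplicate, with basal binding to non-activated endothelium as control.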
sequence,measurement,setting,value
"IGWRNVTRLLVFATDDGFHFAGDGKLGAI [Peptide 4-29, NH2 --Ile--Gly--Trp--Arg--Asn--Val--Thr--Arg--Leu--Leu--Val--Phe--Ala--Thr--Asp--Asp--Gly--Phe--His--Phe--Ala--Gly--Asp--Gly--Lys--Leu--Gly--Ala--Ile--COOH]",activity of the peptide after storage for different times at 4° C.,,maintained
same,concentration of peak inhibitory activity in the PMN adhesion assay,,10^-5 to 10^-6 M and 10^-5 M
same,inhibitory activity in the PMN adhesion assay (in words),,significant inhibitory activity
same,Average % Change of PMN Adhesion to TNF Activated ECs,10^-4 M,-30%
same,Percent Change in PMN Adhesion to TNF Activated ECs,"10^-4 M, donor 108, peptide frozen",-16%
same,Percent Change in PMN Adhesion to TNF Activated ECs,"10^-4 M, donor 272, peptide fresh (second line of donor 272 fresh, last line of table)",+53%
same,Average % Change of PMN Adhesion to TNF Activated ECs,10^-5 M,-65%
same,Percent Change in PMN Adhesion to TNF Activated ECs,"10^-5 M, donor 108, peptide frozen",-63%
same,Average % Change of PMN Adhesion to TNF Activated ECs,10^-6 M,-48%
same,Percent Change in PMN Adhesion to TNF Activated ECs,"10^-6 M, donor 100, peptide frozen",-68%
same,Percent Change in PMN Adhesion to TNF Activated ECs,"10^-6 M, donor 272, peptide fresh (second line of donor 272 fresh, last line of table)",-41%
same,Percent Change in PMN Adhesion to TNF Activated ECs,"10^-6 M, donor 475, peptide fresh",-76%
same,Average % Change of PMN Adhesion to TNF Activated ECs,10^-7 M,+3%
same,Percent Change in PMN Adhesion to TNF Activated ECs,"10^-7 M, donor 121, peptide frozen",+3%
same,Percent Change in PMN Adhesion to TNF Activated ECs,"10^-7 M, donor 155, peptide fresh",+1%
same,Percent Change in PMN Adhesion to TNF Activated ECs,"10^-7 M, donor 272, peptide fresh (second line of donor 272 fresh, last line of table)",+42%
same,Percent Change in PMN Adhesion to TNF Activated ECs,"10^-7 M, donor 323, peptide fresh, or 4° for 2 wks",+45%
same,Percent Change in PMN Adhesion to TNF Activated ECs,"10^-7 M, donor 593, peptide fresh, or 4° for 2 wks",+14%
same,Average % Change of PMN Adhesion to TNF Activated ECs,10^-8 M,-12%
same,Percent Change in PMN Adhesion to TNF Activated ECs,"10^-8 M, donor 178, peptide fresh",+2%
same,effect of freezing and thawing the peptide on its activity in the adhesion assay,PMNs from donors 100 and 272,does not significantly effect its activity
